From US8574831B2, “Mutational profiles in HIV-1 reverse transcriptase correlated with phenotypic drug resistance” (Virco N.V., priority 2000, dated 2013)

Test system: HIV with mutations in the HIV protease sequence
Assay: Phenotypic fold resistance to protease inhibitors, protease mutations 84A/84L/84C/54M/54L/54V in a background (Examples 8-13)
Format: cell-based, HIV-1
Description: As is the case with the genotyping assays, the recombinant virus assay starts with the amplification of viral target sequences by means of PCR. The amplicons are incorporated into a proviral laboratory clone with sequences homologous to those present in the amplicon deleted. This generates a stock of chimeric viruses. The viruses are tested for their ability to grow in the presence of different concentrations of drugs. Results are obtained by calculating IC50 values for each inhibitor and by reporting the results as IC50 values, expressed in μM concentrations, or by computing the ratio of the IC50 values found for the chimeric virus to the IC50 values found for a wild type susceptible laboratory virus tested in parallel. In the latter case, resistance is expressed as “fold-resistance” compared to a wild-type susceptible HIV-1 strain. In order to meet the need for high-volume testing and a short turn-around time for an individual test, the latest generation of phenotyping assays has undergone further modifications. The use of reporter gene systems for susceptibility testing allows the implementation of laboratory automation and standardization. See Pauwels, et al., J. Virol. Methods 20, 309-321 (1998); Paulous, S., et al., International Workshop on HIV Drug Resistance, Treatment Strategies and Eradication, St. Petersburg, Fla., USA. Abstr. 46 (1997); and Deeks, S. G., et al., 2nd International Workshop on HIV Drug Resistance and Treatment Strategies, Lake Maggiore, Italy. Abstr. 53 (1998).
The ANTIVIROGRAM® assay (Virco) (WO 97/27480) is based on homologous recombination of patient derived HIV-1 gag/PR/RT sequences into a proviral HIV-1 clone correspondingly deleted for the gag/PR/RT sequences. See Pauwels, et al., J. Virol. Methods 20, 309-321 (1998). A similar assay (Phenosense ViroLogic) is based on enzymatic ligation of patient-derived PR/RT sequences into a correspondingly deleted proviral vector carrying an indicator gene, luciferase, inserted in the deleted HIV-1 envelope gene. See Deeks, S. G., et al., 2nd International Workshop on HIV Drug Resistance and Treatment Strategies, Lake Maggiore, Italy. Abstr. 53 (1998). Hertogs et al. Antimicrob. Agents Chemother. 44(3) 568-573 (2000) the disclosures of which are herein incorporated by reference.
The methods of monitoring HIV-1 drug resistance, may also be used in combination with phenotypic drug resistance testing of viral isolates. For example, in one embodiment, a phenotypic test is utilized that is based upon the construction of chimeric HIV-1 strains composed of the protease (PR) and reverse transcriptase (RT) gene sequences which are isolated and amplified from the patient viral RNA. These strains may subsequently be recombined inside CD4+ T cells with a standard laboratory isogenic (HXB2) HIV-1 DNA construct from which the PR/RT gene sequences were deleted. The recombinant strains may then be grown in the presence of the above-mentioned antiviral drugs and the susceptibility of the viral isolates may be expressed as fold-change value of the IC50 of the drug on the patient isolates over the IC50 of the drug on a wild-type laboratory reference strain.

CC(C)CN(C[C@@H](O)[C@H](Cc1ccccc1)NC(=O)O[C@H]1CCOC1)S(=O)(=O)c1ccc(N)cc1 [Amprenavir, amprenavir]
mean fold increase in resistance (Table 9 #1, protease genotype WT): 1 fold
mean fold increase in resistance (Table 9 #2, protease genotype 10I): 1.1 fold
mean fold increase in resistance (Table 9 #3, protease genotype 46I): 1.2 fold
mean fold increase in resistance (Table 9 #4, protease genotype 46I + 84V): 2.3 fold
mean fold increase in resistance (Table 9 #5, protease genotype 46I + 84A): 7.7 fold
mean fold increase in resistance (Table 9 #6, protease genotype 10I + 46I): 5.6 fold
mean fold increase in resistance (Table 9 #7, protease genotype 10I + 46I + 84V): 4.5 fold
mean fold increase in resistance (Table 9 #8, protease genotype 10I + 46I + 84A): 17 fold
mean fold increase in resistance (Table 9 #9, protease genotype 10L/I + 46I + 84A): 24.9 fold
mean fold increase in resistance (Table 9 #10, protease genotype 10I + 46I + 84A): 11 fold
mean fold increase in resistance (Table 9 #11, protease genotype 46I + 71V): 2.2 fold
mean fold increase in resistance (Table 9 #12, protease genotype 46I + 71V + 84V/I): 2.2 fold
mean fold increase in resistance (Table 9 #13, protease genotype 46I + 71V + 84A): 23 fold
mean fold increase in resistance (Table 9 #14, protease genotype 10F + 46I + 71V): 4.2 fold
mean fold increase in resistance (Table 9 #15, protease genotype 10I + 46I + 71V + 84V): 17.8 fold
mean fold increase in resistance (Table 9 #16, protease genotype 10I + 46I + 71V + 84A): 15.2 fold
mean fold increase in resistance (Table 9 #17, protease genotype 10V + 46I + 71T + 84A): 39.8 fold
mean fold increase in resistance (Table 9 #18, protease genotype 10I + 46I + 71V + 77I): 0.9 fold
mean fold increase in resistance (Table 9 #19, protease genotype 10I + 46I + 71V + 77I + 84V): 1.4 fold
mean fold increase in resistance (Table 9 #20, protease genotype 10I + 46I + 71V + 77I + 84A): 15 fold
mean fold increase in resistance (Table 9 #21, protease genotype 10I + 33L/I + 46I + 71V + 77V/I + 84A): 10.9 fold
mean fold increase in resistance (Table 10 #1, protease genotype 10I + 36I + 71V): 1.0 fold
mean fold increase in resistance (Table 10 #2, protease genotype 10I + 36I + 71I + 84V): 1.1 fold
mean fold increase in resistance (Table 10 #3, protease genotype 10I + 36I + 71I + 84L): 0.3 fold
mean fold increase in resistance (Table 11 #1, protease genotype WT): 1.0 fold
mean fold increase in resistance (Table 11 #2, protease genotype 84V): 2.0 fold
mean fold increase in resistance (Table 11 #3, protease genotype 84C): 5.9 fold
mean fold increase in resistance (Table 11 #4, protease genotype 10I): 1.1 fold
mean fold increase in resistance (Table 11 #5, protease genotype 10I + 84V): 1.2 fold
mean fold increase in resistance (Table 11 #6, protease genotype 10I + 84C): 3.4 fold
mean fold increase in resistance (Table 11 #7, protease genotype 77I): 0.6 fold
mean fold increase in resistance (Table 11 #8, protease genotype 77I + 84V): 3.3 fold
mean fold increase in resistance (Table 11 #9, protease genotype 77I + 84C): 2.2 fold
mean fold increase in resistance (Table 11 #10, protease genotype 77I + 84C): 4.9 fold
mean fold increase in resistance (Table 11 #11, protease genotype 10I + 24I + 36I + 46I + 71V + 84C): 12.8 fold
Fold change in IC50 (Table 12, V19263, genotype 77I): 0.6 fold
Fold change in IC50 (Table 12, V20160, genotype WT): 1.0 fold
Fold change in IC50 (Table 12, V021667, genotype 10I): 1.1 fold
Fold change in IC50 (Table 12, V030496, genotype 10I + 77I): 0.5 fold
Fold change in IC50 (Table 12, V048869, genotype 10I + 54M + 77I + 90M): 9.3 fold
Fold change in IC50 (Table 12, V048872, genotype 33F + 54M + 77I + 90M): 30.3 fold
Fold change in IC50 (Table 12, V048873, genotype 33F + 54M + 77I + 90M): 37.5 fold
Fold change in IC50 (Table 12, V048877, genotype 10I + 33F + 77I + 90M): 7.9 fold
Fold change in IC50 (Table 12, V048878, genotype 10I + 33F + 54M + 71V + 77I + 90M): 13.7 fold
Fold change in IC50 (Table 12, V048879, genotype 10I + 33F + 54M + 71V + 77I + 90M): 14.1 fold
Fold change in IC50 (Table 12, V048880, genotype 10I + 33F + 77I + 90M): 3.8 fold
Fold change in IC50 (Table 12, V052940, genotype 71V): 0.3 fold
Fold change in IC50 (Table 12, V052942, genotype 10I + 71V): 0.5 fold
Fold change in IC50 (Table 12, V052943, genotype 10I + 90M): 0.4 fold
Fold change in IC50 (Table 12, V052944, genotype 10I + 90M): 0.7 fold
Fold change in IC50 (Table 12, V052945, genotype 77I + 90M): 0.3 fold
Fold change in IC50 (Table 12, V052946, genotype 71V + 90M): 0.5 fold
Fold change in IC50 (Table 12, V052947, genotype 10I + 77I + 90M): 1.2 fold
Fold change in IC50 (Table 12, V052948, genotype 10I + 71V + 90M): 2.0 fold
Fold change in IC50 (Table 12, V052949, genotype 10I + 71V + 77I + 90M): 0.6 fold
Fold change in IC50 (Table 12, V052950, genotype 33F): 0.7 fold
Fold change in IC50 (Table 12, V052951, genotype 33F + 77I): 0.3 fold
Fold change in IC50 (Table 12, V052953, genotype 10I + 33F + 77I): 1.5 fold
Fold change in IC50 (Table 12, V052954, genotype 33F + 77I + 90M): 2.1 fold
Fold change in IC50 (Table 12, V052955, genotype 33F + 71V + 90M): 2.7 fold
Fold change in IC50 (Table 12, V052977, genotype 10I + 33F + 54M): 12.2 fold
Fold change in IC50 (Table 12, V052978, genotype 10I + 33F + 54M + 71V + 90M): 19.3 fold
Fold change in IC50 (Table 12, V052979, genotype 10I + 54M): 10.4 fold
Fold change in IC50 (Table 12, V052980, genotype 10I + 54M + 90M): 1.4 fold
Fold change in IC50 (Table 12, V052981, genotype 10I + 54M + 71V + 90M): 8.9 fold
Fold change in IC50 (Table 12, V052982, genotype 10I + 54M + 71V + 77I + 90M): 3.1 fold
Fold change in IC50 (Table 12, V053832, genotype 10I + 33F): 0.6 fold
